Reference: patent US6924302B2, “Substituted triazole diamine derivatives as kinase inhibitors” (Ortho McNeil Pharmaceutical, Inc., priority 2000, dated 2005)
Where two headings read alike, the source gives them in different places.

Assays:
Protein Kinase A = target: T1, Protein Kinase A (Bos taurus, UniProt P00517); test: Kinase Selectivity Assay Protein Kinase A; assay type: biochemical, bovine; settings: Kinase Selectivity, Tables 2a-2k; read-out: PKA IC50
T1 construct: purified from bovine heart; purchased Upstate Biotech 14-114; host or cells: bovine heart
How it was run: (§1)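 Radiometric Flashplate format: ^33P-γ-ATP transfer to immobilized biotinylated peptide, 1 h, 30° C, 1% DMSO final, enzyme in 50 mM Tris-HCl pH=8.0 + 0.1% BSA. Duplicate 8-point dilution, 100 uM down to 10 pM. IC50 from % inhibition of plate max signal versus log conc.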

[1] = system: PC-3 prostate adenocarcinoma; test: Inhibition of Cell Proliferation (14C-thymidine incorporation), PC-3; assay type: cell-based; settings: Homo sapiens, PC-3 cell line
Method: (§2) The ability of a test compound to inhibit the proliferation of cell growth was determined by measuring incorporation of ^14C-labelled thymidine into newly synthesized DNA within the cells. This method was used on cell lines derived from carcinomas originating from several tissues such as HeLa cervical adenocarcinoma (American Type Culture Collection (ATCC), Virginia, Cat. #CCL-2), A375 malignant melanoma (ATCC CRL-1619), SK-OV-3 ovarian adenocarcinoma (ATCC HTB-77) HCT-116 colon carcinoma (CCL-247), PC-3 prostate adenocarcinoma (ATCC CRL-1435), and MDA-MB-231 (Xenogen Corp.) In this way the effect of a compound on cell growth of cells with many different phenotypes can be determined. Cells were trypsinized and counted and 3000-8000 cells were added to each well of a 96-well CytoStar tissue culture treated scintillating microplate (Amersham #RPNQ0160) in complete medium in a volume of 100 μl. Cells were incubated for 24 hours in complete medium at 37° C. in an atmosphere containing 5% CO2. Next, 1 μl of test compound in 100% DMSO was added to the wells of the plate. DMSO only was added to control wells. Cells were incubated for 24 more hours in complete medium at 37° C. in an atmosphere containing 5% CO2. Methyl ^14C-thymidine 56 mCi/mmol (NEN #NEC568 or Amersham #CFA532) was diluted in complete medium and 0.2 uCi/well was added to each well of the CytoStar plate in a volume of 20 μl. The plate was incubated for 24 hours at 37° C. plus 5% CO2 in drug plus ^14C-thymidine. The contents of the plate were discarded into a ^14C radioactive waste container by inverting the plate and the plate was washed twice with 200 μl PBS. 200 μl of PBS is added to each well. The top of the plate was sealed with a transparent plate sealer and a white plate backing sealer (Packard #6005199) was applied to the bottom of the plate. The degree of methyl ^14C-thymidine incorporation was quantified on a Packard Top Count.

[2] = target: T2, Calmodulin Kinase (calmodulin-dependent protein kinase 2) (Rattus norvegicus, UniProt P11275); test: Kinase Selectivity Assay Calmodulin Kinase; assay type: biochemical; settings: Kinase Selectivity, Tables 2a-2k; read-out: Calmodulin Kinase 2 IC50
T2 construct: a truncated version of the alpha subunit of the rat protein; purchased New England Biolabs 6060; host or cells: insect cells
How it was run: as §1

HCT-116 colon carcinoma = test: Inhibition of Cell Proliferation (14C-thymidine incorporation), HCT-116; assay type: cell-based; settings: Homo sapiens, HCT-116 cell line
Method: as §2

FGF-R2 = FGF-R2 (Homo sapiens, UniProt P21802); test: Kinase Selectivity Assay FGF-R2; assay type: biochemical; settings: Tables 2a-2k
Method: (§3) Assays to test compound inhibition of other kinases were preformed using methods that measure the amount of phosphorylation of a biotinylated peptide substrate. Biotinylated peptide substrates were selected from the literature as appropriate for the enzyme being evaluated. […] Assay conditions vary slightly for each protein kinase, for example, insulin receptor kinase requires 10 mM MnCl2 for activity and Calmodulin-dependent protein kinase requires calmodulin and 10 mM CaCl2. These assay conditions are known in the art. The reaction mixture was dispensed into the wells of a streptavidin coated Flashplate and 1 μl drug stock in 100% DMSO was added to a 100 μl reaction volume resulting in a final concentration of 1% DMSO on the reaction. Enzyme was diluted in 50 mM Tris-HCl pH=8.0, 0.1% BSA and add to each well. The reaction was incubated for one hour at 30° C. in the presence of compound. After one hour the reaction mix was aspirated from the plate and the plate was washed with PBS containing 100 mM EDTA. The plate was read on a scintillation counter to determine ^33P-γ-ATP incorporated into the immobilized peptide. Test compounds were assayed in duplicate at 8 concentrations [100 uM, 10 uM, 1 uM, 100 nM, 10 nM, 1 nM, 100 pM, 10 pM]. A maximum and minimum signal for the assay was determined on each plate. The IC50 was calculated from the dose response curve of the percent inhibition of the maximum signal in the assay according to the formula [max signal—background/test compound signal—background (100)=% inhibition] by graphing the percent inhibition against the log concentration of test compound. Known inhibitor compounds appropriate for the kinase being assayed were also included on each plate.

[3] = target: T3, Casein Kinase 2 (alpha and beta subunits) (Homo sapiens, UniProt P68400); test: Kinase Selectivity Assay Casein Kinase 2; assay type: biochemical; settings: Kinase Selectivity, Tables 2a-2k; read-out: Caseine Kinase 2 IC50
T3 construct: purchased New England Biolabs 6010; host or cells: E. coli
How it was run: as §1

A375 malignant melanoma = test: Inhibition of Cell Proliferation (14C-thymidine incorporation), A375; assay type: cell-based; settings: Homo sapiens, A-375, A375 cell line
Method: as §2

[4] = system: HeLa cervical adenocarcinoma; test: Inhibition of Cell Proliferation (14C-thymidine incorporation), HeLa; assay type: cell-based; settings: Homo sapiens, HeLa cell line
Method: as §2

[5] = target: T4, PDGF-R (platelet derived growth factor receptor) beta subunit kinase domain (Homo sapiens, UniProt P09619); test: Kinase Selectivity Assay PDGF-R; assay type: biochemical; settings: Kinase Selectivity, Tables 2a-2k; read-out: PDGF-R kinase IC50
T4 construct: nucleotides 1874-3507 of the human PDGF-R beta subunit kinase domain; polyhistidine (N)
How it was run: as §1

[6] = target: T5, Glycogen Synthase Kinase-3 (beta isoform) (Oryctolagus cuniculus, UniProt G1T8E2); test: Kinase Selectivity Assay Glycogen Synthase Kinase-3; assay type: biochemical, rabbit; settings: Kinase Selectivity, Tables 2a-2k; read-out: GSK-3 IC50
T5 construct: purchased New England Biolabs 6040; host or cells: E. coli
How it was run: as §1

[7] = target: T6, HER2 (human epidermal growth factor receptor-2) (Homo sapiens, UniProt P04626); test: Kinase Selectivity Assay HER2; assay type: biochemical
T6 construct: begins at amino acid 676 followed by the remainder of the HER2 cytoplasmic domain; polyhistidine (N)
How it was run: as §1

Insulin Receptor Kinase = Insulin Receptor Kinase (Homo sapiens, UniProt P06213); test: Kinase Selectivity Assay Insulin Receptor Kinase; assay type: biochemical; settings: Kinase Selectivity, Tables 2a-2k; read-out: Insulin R Kinase IC50
How it was run: as §1

[8] = target: T7, MAP Kinase (ERK-2 isoform) (Rattus norvegicus, UniProt P63086); test: Kinase Selectivity Assay MAP Kinase (ERK-2); assay type: biochemical; settings: Kinase Selectivity, Tables 2a-2k; read-out: ERK 2 IC50
T7 construct: polyhistidine (N); host or cells: E. coli
How it was run: as §1

[9] = target: T8, Casein Kinase 1 (CK1 delta isoform) (Rattus norvegicus, UniProt Q06486); test: Kinase Selectivity Assay Casein Kinase 1; assay type: biochemical; settings: Tables 2a-2k, read-out: Caseine Kinase 1 IC50
T8 construct: a truncation at amino acid 318 of the C-terminal portion of the rat CK1 delta isoform; purchased New England Biolabs 6030; host or cells: E. coli
T8 sequence (Q06486 1-317): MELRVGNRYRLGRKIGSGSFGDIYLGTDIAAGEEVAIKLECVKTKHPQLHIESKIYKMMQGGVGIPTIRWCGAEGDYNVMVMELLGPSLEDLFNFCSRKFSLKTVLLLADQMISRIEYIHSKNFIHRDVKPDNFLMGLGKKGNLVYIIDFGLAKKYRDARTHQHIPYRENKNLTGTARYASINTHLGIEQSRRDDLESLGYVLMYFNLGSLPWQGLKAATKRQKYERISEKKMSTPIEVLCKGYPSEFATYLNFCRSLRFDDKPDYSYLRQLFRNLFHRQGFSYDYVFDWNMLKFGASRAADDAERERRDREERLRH
Method: as §3
CDK2 in complex with cyclin A is commercially available (Upstate Biotech, Lake Placid, N.Y.). The CDK4 complex was composed of a mouse CDK4 protein and a mouse Cyclin D1 protein (The mouse CDK4 protein was genetically fused to an N-terminal Flag-epitope tag and the mouse Cyclin D1 protein was fused with an N-terminal AU-1 epitope tag. The genes encoding these proteins were transferred to commercially available baculoviral vectors. The recombinant CDK4/D1 complex was then made by co-infecting commercially available insect cells with viruses carrying these two constructs). […] ERK-1 protein (Discontinued from Calbiochem). EGFR (epidermal growth factor receptor) is purified from human A431 cell membranes (Sigma, St. Louis, Mo., Cat.# E3641).

[10] = target: PKC (protein kinase-C), gamma or beta isoform; test: Kinase Selectivity Assay PKC; assay type: biochemical, human; settings: Tables 2a-2k
Method: as §3
CDK2 in complex with cyclin A is commercially available (Upstate Biotech, Lake Placid, N.Y.). […]

[11] = target: T9, VEGF-R (vascular endothelial growth factor receptor-2) (Rattus norvegicus, UniProt O08775); test: VEGF-R Screening Assay; assay type: biochemical; settings: read-out: VEGF-R IC50
T9 construct: polyhistidine (6xHIS) (N)

[12] = target: T10, CDK2 in complex with cyclin A (Homo sapiens, UniProt P24941); test: Kinase Selectivity Assay CDK2; assay type: biochemical; settings: Table 1
T10 construct: purchased Upstate Biotech
How it was run: as §1

[13] = Kinase Selectivity, Tables 2a-2k, read-out: HER2 Kinase IC50

T4 sequence (P09619 564-1106): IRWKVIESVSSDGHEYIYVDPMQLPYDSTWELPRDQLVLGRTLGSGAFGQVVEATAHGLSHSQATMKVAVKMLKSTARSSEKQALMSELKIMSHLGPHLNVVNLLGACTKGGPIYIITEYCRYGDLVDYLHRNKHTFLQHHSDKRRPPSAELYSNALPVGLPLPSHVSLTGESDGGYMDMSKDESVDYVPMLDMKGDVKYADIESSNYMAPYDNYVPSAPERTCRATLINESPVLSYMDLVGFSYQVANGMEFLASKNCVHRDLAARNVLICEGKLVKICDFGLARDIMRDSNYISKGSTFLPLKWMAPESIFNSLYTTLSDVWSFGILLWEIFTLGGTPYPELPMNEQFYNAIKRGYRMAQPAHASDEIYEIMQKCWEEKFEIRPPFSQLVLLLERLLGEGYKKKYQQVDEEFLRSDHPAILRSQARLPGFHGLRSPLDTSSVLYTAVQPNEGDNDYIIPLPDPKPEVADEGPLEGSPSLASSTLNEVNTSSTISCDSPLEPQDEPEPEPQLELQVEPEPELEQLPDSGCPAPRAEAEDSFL
T7 sequence (P63086 whole entry, canonical isoform): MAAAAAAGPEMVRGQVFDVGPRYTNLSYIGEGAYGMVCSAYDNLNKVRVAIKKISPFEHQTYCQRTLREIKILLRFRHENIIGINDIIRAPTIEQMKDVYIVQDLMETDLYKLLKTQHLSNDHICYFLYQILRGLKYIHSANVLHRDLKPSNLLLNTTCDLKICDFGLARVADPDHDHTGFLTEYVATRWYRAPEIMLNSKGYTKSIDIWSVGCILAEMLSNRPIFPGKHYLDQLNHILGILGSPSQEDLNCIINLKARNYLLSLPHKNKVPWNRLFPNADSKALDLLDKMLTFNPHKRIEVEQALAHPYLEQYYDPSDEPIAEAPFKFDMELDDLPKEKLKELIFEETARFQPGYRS
T5 sequence (G1T8E2 1-432): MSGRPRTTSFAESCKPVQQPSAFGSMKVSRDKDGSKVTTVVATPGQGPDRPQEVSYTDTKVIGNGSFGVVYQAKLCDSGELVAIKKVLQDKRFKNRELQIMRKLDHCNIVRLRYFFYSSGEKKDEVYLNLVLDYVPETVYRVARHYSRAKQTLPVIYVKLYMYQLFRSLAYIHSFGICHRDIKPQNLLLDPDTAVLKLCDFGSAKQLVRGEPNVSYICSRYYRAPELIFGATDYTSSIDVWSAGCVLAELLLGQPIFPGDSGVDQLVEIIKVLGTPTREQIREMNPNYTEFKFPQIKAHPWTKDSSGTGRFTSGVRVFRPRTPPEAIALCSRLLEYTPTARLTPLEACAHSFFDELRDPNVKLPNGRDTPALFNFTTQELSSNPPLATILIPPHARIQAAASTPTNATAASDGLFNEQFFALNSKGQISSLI
T6 sequence (P04626 676-1255 limits assumed): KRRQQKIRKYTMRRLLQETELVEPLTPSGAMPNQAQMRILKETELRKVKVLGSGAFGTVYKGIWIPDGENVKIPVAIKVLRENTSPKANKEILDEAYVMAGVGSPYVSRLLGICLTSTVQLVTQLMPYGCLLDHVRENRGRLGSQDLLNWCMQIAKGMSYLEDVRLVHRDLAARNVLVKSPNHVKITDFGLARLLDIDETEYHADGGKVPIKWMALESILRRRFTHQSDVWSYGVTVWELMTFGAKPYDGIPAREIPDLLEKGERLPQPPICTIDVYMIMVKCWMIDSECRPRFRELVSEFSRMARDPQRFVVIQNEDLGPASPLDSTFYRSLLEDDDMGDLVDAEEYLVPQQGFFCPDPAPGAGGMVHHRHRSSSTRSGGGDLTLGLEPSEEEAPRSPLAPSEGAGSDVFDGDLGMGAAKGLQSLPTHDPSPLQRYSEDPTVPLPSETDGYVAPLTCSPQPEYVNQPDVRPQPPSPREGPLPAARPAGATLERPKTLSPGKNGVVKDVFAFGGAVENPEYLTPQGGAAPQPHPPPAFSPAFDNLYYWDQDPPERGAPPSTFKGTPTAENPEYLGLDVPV
T3 sequence (P68400 whole entry): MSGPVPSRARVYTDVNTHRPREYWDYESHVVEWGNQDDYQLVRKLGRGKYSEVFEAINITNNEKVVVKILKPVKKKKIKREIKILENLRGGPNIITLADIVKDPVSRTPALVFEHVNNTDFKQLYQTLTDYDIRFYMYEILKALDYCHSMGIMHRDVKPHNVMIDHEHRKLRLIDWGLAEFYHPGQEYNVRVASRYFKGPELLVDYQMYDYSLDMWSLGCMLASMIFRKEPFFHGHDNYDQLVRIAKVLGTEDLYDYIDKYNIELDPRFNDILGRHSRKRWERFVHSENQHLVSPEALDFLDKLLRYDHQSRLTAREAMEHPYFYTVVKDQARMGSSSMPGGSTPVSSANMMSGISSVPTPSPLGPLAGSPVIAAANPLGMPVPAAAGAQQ
T3 sequence (P67870 whole entry partner): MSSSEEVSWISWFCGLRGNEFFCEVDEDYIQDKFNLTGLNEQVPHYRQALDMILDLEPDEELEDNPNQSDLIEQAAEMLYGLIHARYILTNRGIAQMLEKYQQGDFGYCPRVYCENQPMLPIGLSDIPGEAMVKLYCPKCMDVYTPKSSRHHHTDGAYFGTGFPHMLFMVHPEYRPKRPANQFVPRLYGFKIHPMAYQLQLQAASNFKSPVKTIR
T9 sequence (O08775 786-1343): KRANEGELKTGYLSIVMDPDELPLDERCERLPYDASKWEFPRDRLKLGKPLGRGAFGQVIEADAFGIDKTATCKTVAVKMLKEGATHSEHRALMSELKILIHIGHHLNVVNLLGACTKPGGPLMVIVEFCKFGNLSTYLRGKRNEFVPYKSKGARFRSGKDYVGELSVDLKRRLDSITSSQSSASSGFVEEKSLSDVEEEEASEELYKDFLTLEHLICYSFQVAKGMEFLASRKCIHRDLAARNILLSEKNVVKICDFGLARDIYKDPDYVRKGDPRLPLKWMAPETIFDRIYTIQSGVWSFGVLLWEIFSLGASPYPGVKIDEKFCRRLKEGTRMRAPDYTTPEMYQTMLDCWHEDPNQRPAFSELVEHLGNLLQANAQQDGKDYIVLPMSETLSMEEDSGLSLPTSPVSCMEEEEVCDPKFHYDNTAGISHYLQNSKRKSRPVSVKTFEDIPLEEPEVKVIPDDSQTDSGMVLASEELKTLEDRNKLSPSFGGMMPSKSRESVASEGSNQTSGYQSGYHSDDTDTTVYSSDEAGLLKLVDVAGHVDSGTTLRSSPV
Chain of Insulin Receptor Kinase (P06213 980-1352): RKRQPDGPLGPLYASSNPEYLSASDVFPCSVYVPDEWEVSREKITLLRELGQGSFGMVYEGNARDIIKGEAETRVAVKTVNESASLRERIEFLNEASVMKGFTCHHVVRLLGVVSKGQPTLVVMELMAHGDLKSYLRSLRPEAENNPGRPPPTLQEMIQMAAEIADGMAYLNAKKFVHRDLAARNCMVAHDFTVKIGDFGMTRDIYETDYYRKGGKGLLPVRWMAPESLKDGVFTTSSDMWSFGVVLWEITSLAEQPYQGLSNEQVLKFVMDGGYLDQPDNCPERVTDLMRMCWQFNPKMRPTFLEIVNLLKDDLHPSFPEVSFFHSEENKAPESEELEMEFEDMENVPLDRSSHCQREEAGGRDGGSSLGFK
Chain of FGF-R2 (P21802 22-821, species assumed): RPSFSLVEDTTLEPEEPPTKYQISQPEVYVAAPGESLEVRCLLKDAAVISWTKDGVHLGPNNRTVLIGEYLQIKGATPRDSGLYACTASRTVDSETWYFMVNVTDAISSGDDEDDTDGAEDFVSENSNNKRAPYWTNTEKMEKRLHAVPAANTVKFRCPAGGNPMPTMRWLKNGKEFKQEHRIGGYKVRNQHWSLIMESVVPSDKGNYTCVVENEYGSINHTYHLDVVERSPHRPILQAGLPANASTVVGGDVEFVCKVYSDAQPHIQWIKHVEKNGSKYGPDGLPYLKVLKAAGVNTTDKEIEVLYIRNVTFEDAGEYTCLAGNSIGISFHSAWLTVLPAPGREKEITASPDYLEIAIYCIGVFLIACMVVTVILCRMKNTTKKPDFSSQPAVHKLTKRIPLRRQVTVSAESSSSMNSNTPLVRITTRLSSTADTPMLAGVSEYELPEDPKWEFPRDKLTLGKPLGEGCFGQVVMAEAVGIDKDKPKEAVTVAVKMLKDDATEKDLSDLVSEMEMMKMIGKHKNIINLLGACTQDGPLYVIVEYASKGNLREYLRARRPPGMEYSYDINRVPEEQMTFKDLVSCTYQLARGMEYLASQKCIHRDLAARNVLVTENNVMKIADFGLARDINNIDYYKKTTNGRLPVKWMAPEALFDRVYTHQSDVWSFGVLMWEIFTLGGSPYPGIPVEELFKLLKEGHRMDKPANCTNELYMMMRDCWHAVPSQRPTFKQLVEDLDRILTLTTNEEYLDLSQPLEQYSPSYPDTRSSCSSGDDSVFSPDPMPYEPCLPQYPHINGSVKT

CNS(=O)(=O)c1ccc(Nc2nc(N)n(C(=O)c3sc(C)cc3C)n2)cc1 [Cpd 83, 4-[[5-amino-1-[(3,5-dimethyl-2-thienyl)carbonyl]-1H-1,2,4-triazol-3-yl]amino]-N-methyl-benzenesulfonamide]
IC50 (Protein Kinase A): > 100 µM | IC50 [1]: 12 nM | IC50 [2]: > 100 µM | IC50 (HCT-116 colon carcinoma): 192 nM | IC50 (FGF-R2): 0.022 µM | IC50 [3]: > 100 µM | IC50 (A375 malignant melanoma): 556 nM | IC50 [4]: 122 nM | IC50 [5]: 0.113 µM | IC50 [6]: 0.007 µM | IC50 [7, 13]: 0.013 µM | IC50 ([7]; Table 1, read-out: HER2 IC50): 0.013 µM | IC50 (Insulin Receptor Kinase): > 10 µM | IC50 [8]: > 100 µM | IC50 [9]: 0.275 µM

Cc1ccsc1C(=O)n1nc(Nc2ccc(-n3cncn3)cc2)nc1N [Cpd 99, 1-[(3-methyl-2-thienyl)carbonyl]-N^3-[4-(1H-1,2,4-triazol-1-yl)phenyl]-1H-1,2,4-triazole-3,5-diamine]
IC50 [10]: > 100 µM | IC50 [1]: 1690 nM | IC50 [2]: > 100 µM | IC50 [3]: > 100 µM | IC50 ([11]; Kinase Selectivity, Tables 2a-2k): 0.098 µM | IC50 ([11]; Table 1): 0.098 µM | IC50 [4]: 3350 nM | IC50 [5]: 0.385 µM | IC50 [6]: 0.03 µM | IC50 (Insulin Receptor Kinase): > 100 µM | IC50 [8]: > 100 µM | IC50 [9]: > 1 µM

CCc1ccc(C(=O)n2nc(Nc3ccc(S(=O)(=O)Nc4ccccn4)cc3)nc2N)s1 [Cpd 119]
IC50 [10]: > 100 µM | IC50 (Protein Kinase A): > 100 µM | IC50 [2]: > 100 µM | IC50 [3]: > 100 µM | IC50 [12]: 0.003 µM | IC50 [5]: > 10 µM | IC50 [6]: 0.006 µM | IC50 [7, 13]: 1 µM | IC50 ([7]; Table 1, read-out: HER2 IC50): ~1 µM | IC50 [8]: > 100 µM | IC50 [9]: 0.757 µM
